# Assay results published in patent US4243408A, “Herbicidal N-triazolylmethyl-substituted alpha-haloacetanilide” (Chevron Research Company, priority 1978, dated 1981).
# Legend:
# Format in all cases: in vivo
# [1] = test system: Lambsquarter (Chenopodium album); test: Pre-Emergent Test, herbicidal effectiveness; settings: pre-emergence, 504 h, 0-to-100 scale, read-out: Herbicidal Effectiveness, % Control Pre, L; for pest or weed control at 33 µg/cm2: 33 micrograms per cm^2, 3 weeks
# Procedure: (§1) An acetone solution of the test compound was prepared by mixing 750 mg of the compound, 220 mg of a nonionic surfactant and 25 ml of acetone. This solution was added to approximately 125 ml of water containing 156 mg of surfactant.
# (§2) Seeds of the test vegetation were planted in a pot of soil and the test solution was sprayed uniformly onto the soil surface at a dose of 33 micrograms/cm^2. The pot was watered and placed in a greenhouse. […] At the end of this period, the herbicidal effectiveness of the compound was rated based on the physiological observations. A 0-to-100 scale was used, 0 representing no phytotoxicity, 100 representing complete kill.
# [2] = test system: Crabgrass (Digitaria sanguinalis); test: Pre-Emergent Test, herbicidal effectiveness; settings: pre-emergence, 504 h, 0-to-100 scale, read-out: Herbicidal Effectiveness, % Control Pre, C; for pest or weed control at 33 µg/cm2: 33 micrograms per cm^2, 3 weeks
# Procedure: as §1, §2
# [3] = test system: Pigweed (Amaranthus retroflexus); test: Pre-Emergent Test, herbicidal effectiveness; settings: pre-emergence, 504 h, 0-to-100 scale, read-out: Herbicidal Effectiveness, % Control Pre, P; for pest or weed control at 33 µg/cm2: 33 micrograms per cm^2, 3 weeks
# Procedure: as §1, §2
# [4] = test system: Mustard (Brassica arvensis); test: Pre-Emergent Test, herbicidal effectiveness; settings: pre-emergence, 504 h, 0-to-100 scale; for pest or weed control at 33 µg/cm2: 33 micrograms per cm^2, 3 weeks
# Procedure: as §1, §2
# Wild Oats (Avena fatua) [5] = test: Pre-Emergent Test, herbicidal effectiveness; settings: pre-emergence, 504 h, 0-to-100 scale, read-out: Herbicidal Effectiveness, % Control Pre, O; for pest or weed control at 33 µg/cm2: 33 micrograms per cm^2, 3 weeks; for pest or weed control at 11 µg/cm2: 11 micrograms per cm^2, 3 weeks
# Procedure: as §1, §2
# Watergrass (Echinochloa) [6] = test: Pre-Emergent Test, herbicidal effectiveness; settings: pre-emergence, 504 h, 0-to-100 scale, read-out: Herbicidal Effectiveness, % Control Pre, W; for pest or weed control at 33 µg/cm2: 33 micrograms per cm^2, 3 weeks; for pest or weed control at 11 µg/cm2: 11 micrograms per cm^2, 3 weeks
# Procedure: as §1, §2
# [7] = test system: Lambsquarter (Chenopodium album); test: Post-Emergent Test, herbicidal effectiveness; settings: post-emergence, 504 h, 33 micrograms per cm^2, 3 weeks, 0-to-100 scale, read-out: Herbicidal Effectiveness, % Control Post, L
# [8] = test system: Crabgrass (Digitaria sanguinalis); test: Post-Emergent Test, herbicidal effectiveness; settings: post-emergence, 504 h, 33 micrograms per cm^2, 3 weeks, 0-to-100 scale, read-out: Herbicidal Effectiveness, % Control Post, C
# [9] = test system: Pigweed (Amaranthus retroflexus); test: Post-Emergent Test, herbicidal effectiveness; settings: post-emergence, 504 h, 33 micrograms per cm^2, 3 weeks, 0-to-100 scale, read-out: Herbicidal Effectiveness, % Control Post, P
# [10] = test system: Mustard (Brassica arvensis); test: Post-Emergent Test, herbicidal effectiveness; settings: post-emergence, 504 h, 33 micrograms per cm^2, 3 weeks, 0-to-100 scale
# Wild Oats (Avena fatua) [11] = test: Post-Emergent Test, herbicidal effectiveness; settings: post-emergence, 504 h, 33 micrograms per cm^2, 3 weeks, 0-to-100 scale, read-out: Herbicidal Effectiveness, % Control Post, O
# Watergrass (Echinochloa) [12] = test: Post-Emergent Test, herbicidal effectiveness; settings: post-emergence, 504 h, 33 micrograms per cm^2, 3 weeks, 0-to-100 scale, read-out: Herbicidal Effectiveness, % Control Post, W
# [13] = 11 micrograms per cm^2, 3 weeks
Structure (SMILES),pest or weed control at 33 µg/cm2 [1] [%],pest or weed control at 33 µg/cm2 [2] [%],pest or weed control at 33 µg/cm2 [3] [%],pest or weed control at 33 µg/cm2 [4] [%],pest or weed control at 33 µg/cm2 (Wild Oats (Avena fatua) [5]) [%],pest or weed control at 33 µg/cm2 (Watergrass (Echinochloa) [6]) [%],"pest or weed control at 5000 µg/mL, 33 µg/cm2 [7] [%]","pest or weed control at 5000 µg/mL, 33 µg/cm2 [8] [%]","pest or weed control at 5000 µg/mL, 33 µg/cm2 [9] [%]","pest or weed control at 5000 µg/mL, 33 µg/cm2 [10] [%]","pest or weed control at 5000 µg/mL, 33 µg/cm2 (Wild Oats (Avena fatua) [11]) [%]","pest or weed control at 5000 µg/mL, 33 µg/cm2 (Watergrass (Echinochloa) [12]) [%]",pest or weed control at 11 µg/cm2 (Watergrass (Echinochloa) [6]) [%],pest or weed control at 11 µg/cm2 (Wild Oats (Avena fatua) [5]) [%],"pest or weed control at 11 µg/cm2 [1, 13] [%]","pest or weed control at 11 µg/cm2 [2, 13] [%]","pest or weed control at 11 µg/cm2 [3, 13] [%]","pest or weed control at 11 µg/cm2 [4, 13] [%]"
"Cc1nnc(CNc2c(C)cccc2C)o1 [Compound 1A, 2-(2,6-dimethylphenylaminomethyl)-5-methyl-1,3,4-oxadiazole]",0,0,0,0,0,0,0,0,0,0,0,0,–,–,–,–,–,–
"Cc1nnc(CN(C(=O)CCl)c2c(C)cccc2C)o1 [Compound 1B, N-(5-methyl-1,3,4-oxadiazol-2-ylmethyl)-2,6-dimethyl-alpha-chloroacetanilide]",50,100,87,45,90,100,0,0,0,0,0,0,–,–,–,–,–,–
"Cc1nc(CNc2c(C)cccc2C)n[nH]1 [Compound 2A, 3-(2,6-dimethylphenylaminomethyl)-5-methyl-1,2,4-triazole]",0,0,0,0,0,0,0,0,0,0,0,0,–,–,–,–,–,–
"Cc1nnc(CN(C(=O)CCl)c2c(C)cccc2C)[nH]1 [Compound 2B, N-(5-methyl-1,2,4-triazol-3-ylmethyl)-2,6-dimethyl-alpha-chloroacetanilide]",98,100,88,75,100,100,50,20,32,25,30,75,–,–,–,–,–,–
"Cc1cccc(C)c1NCc1nnc(S)n1C [Compound 3, 3-(2,6-dimethylphenylaminomethyl)-4-methyl-5-mercapto-1,2,4-triazole]",0,0,0,0,0,0,0,0,0,0,0,0,–,–,–,–,–,–
CCc1cccc(C)c1N(Cc1nnc(C)o1)C(=O)CCl [Compound 4],10,100,65,10,93,100,0,20,0,0,50,60,–,–,–,–,–,–
CCc1cccc(CC)c1NCc1nnc(C)[nH]1 [Compound 5A],0,0,0,0,0,0,0,0,0,0,0,0,–,–,–,–,–,–
CCc1cccc(CC)c1N(Cc1nnc(C)[nH]1)C(=O)CCl [Compound 5B],–,–,–,–,–,–,–,–,–,–,–,–,100,–,–,–,–,–
CCc1cccc(C)c1NCc1nnc(C)[nH]1 [Compound 6A],0,0,0,0,0,0,0,0,0,0,0,0,–,–,–,–,–,–
CCc1cccc(C)c1N(Cc1nnc(C)[nH]1)C(=O)CCl [Compound 6B],–,–,–,–,–,–,–,–,–,–,–,–,–,100,–,–,–,–
CCc1nnc(CNc2c(CC)cccc2CC)[nH]1 [Compound 8A],0,0,0,0,0,0,0,0,0,0,0,0,–,–,–,–,–,–
CCc1nnc(CN(C(=O)CCl)c2c(CC)cccc2CC)[nH]1 [Compound 8B],–,–,–,–,–,–,–,–,–,–,–,–,100,99,100,100,90,83
Cc1cccc(C)c1NCc1nnc[nH]1 [Compound 9A],0,0,0,0,0,0,0,0,0,0,0,0,–,–,–,–,–,–
Cc1cccc(C)c1N(Cc1nnc[nH]1)C(=O)CCl [Compound 9B],100,100,100,55,100,100,25,70,0,25,65,75,–,–,–,–,–,–
